Results on 22 molecules are retold here after US20250197372A1 (priority 2020, published 2025).

Structures are written as SMILES.

Assay [1] addresses T1, recombinant alpha-glucosidase I (human full-length glucosidase I, Glu 1) (Homo sapiens, UniProt Q13724).
T1 construct: 6-His (C); made in house; host or cells: HEK-293T cells transduced with BacMam virus (virus raised in Sf9)
T1 sequence (Q13724 1-837): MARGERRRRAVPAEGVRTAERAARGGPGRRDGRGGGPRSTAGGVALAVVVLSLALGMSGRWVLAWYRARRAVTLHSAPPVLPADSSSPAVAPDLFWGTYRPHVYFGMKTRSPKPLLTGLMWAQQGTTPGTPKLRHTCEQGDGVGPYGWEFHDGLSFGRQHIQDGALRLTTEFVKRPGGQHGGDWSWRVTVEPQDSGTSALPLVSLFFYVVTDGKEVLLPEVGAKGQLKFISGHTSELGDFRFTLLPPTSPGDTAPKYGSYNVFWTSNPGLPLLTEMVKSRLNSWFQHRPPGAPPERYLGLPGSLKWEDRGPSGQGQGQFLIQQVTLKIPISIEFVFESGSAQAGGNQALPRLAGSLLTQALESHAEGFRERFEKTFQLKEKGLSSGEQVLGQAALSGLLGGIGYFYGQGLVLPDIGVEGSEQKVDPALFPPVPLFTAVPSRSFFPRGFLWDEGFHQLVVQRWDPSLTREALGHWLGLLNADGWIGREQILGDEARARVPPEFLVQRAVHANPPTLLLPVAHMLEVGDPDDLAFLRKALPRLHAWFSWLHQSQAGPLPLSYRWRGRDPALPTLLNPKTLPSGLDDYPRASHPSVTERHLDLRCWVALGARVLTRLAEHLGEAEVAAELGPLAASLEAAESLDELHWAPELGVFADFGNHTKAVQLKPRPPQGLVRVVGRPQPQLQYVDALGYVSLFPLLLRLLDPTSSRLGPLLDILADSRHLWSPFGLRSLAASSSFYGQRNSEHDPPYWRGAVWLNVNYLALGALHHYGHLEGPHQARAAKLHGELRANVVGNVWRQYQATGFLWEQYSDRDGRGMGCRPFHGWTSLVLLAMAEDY
The experiment in a line: Alpha-glucosidase I assay (Amplex Red glucose detection, synthetic trisaccharide substrate). As to conditions: Glucosidase 1; read-out: Glu 1 IC50. The class given is biochemical. In short, it runs like this: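 Compound dilution series incubated 60 min at 37° C with recombinant His-tagged human glucosidase I ([…]), after which trisaccharide substrate analog was added for 90 min at 37° C. Reaction quenched with 1.5M Tris pH 8; D-glucose detected by Amplex Red fluorescence, 560/590 nm. 4-PL curve fit of percent inhibition gave IC50.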

In assay [2] the target is rat maltase (partially purified alpha-glucosidase from intestinal rat powder). The experiment in a line: Intestinal alpha-glucosidase assay, maltose substrate (Glucose GO Kit). It counts as biochemical. In short, it runs like this:
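Rat intestinal enzyme prep + test cpd dilutions, 60 min 37 °C; add maltose (maltase) or sucrose (sucrase), 30 min 37 °C; stop 90 °C 5 min. Glucose readout (glucose oxidase kit). IC50 from 4-PL fit of % inhibition vs conc.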

As for `Cc1cc(Br)cc(NCc2ccc(CN3C[C@H](O)[C@@H](O)[C@H](O)[C@H]3CO)cc2)c1` [Compound 1024, (2R,3R,4R,5S)-1-[(4-{[(3-bromo-5-methylphenyl)amino]methyl}phenyl)methyl]-2-(hydroxymethyl)piperidine-3,4,5-triol], the figures for the IC50 in assay [1] and in assay [2] were 8 nM and 2 nM, respectively.

On to `N#CCc1ccc(NCCCCCCN2C[C@H](O)[C@@H](O)[C@H](O)[C@H]2CO)c([N+](=O)[O-])c1` [Compound 1299, 2-[3-nitro-4-({6-[(2R,3R,4R,5S)-3,4,5-trihydroxy-2-(hydroxymethyl)piperidin-1-yl]hexyl}amino)phenyl]acetonitrile], for which the IC50 in assay [1] worked out at 189 nM; in assay [2] it was 5 nM.

Consider `[N-]=[N+]=Nc1ccc(NCCN2CC(OCCN3C[C@H](O)[C@@H](O)[C@H](O)[C@H]3CO)C2)c([N+](=O)[O-])c1` [Compound 1271, (2R,3R,4R,5S)-1-{2-[(1-{2-[(4-azido-2-nitrophenyl)amino]ethyl}azetidin-3-yl)oxy]ethyl}-2-(hydroxymethyl)piperidine-3,4,5-triol], for which the values for the IC50 in assay [1] and in assay [2] were 1070 nM and 33 nM, respectively.

With `CN(C)Cc1ccc(NCCCCCCN2C[C@H](O)[C@@H](O)[C@H](O)[C@H]2CO)c(C(F)(F)F)c1` [Compound 1259, (2R,3R,4R,5S)-1-[6-({4-[(dimethylamino)methyl]-2-(trifluoromethyl)phenyl}amino)hexyl]-2-(hydroxymethyl)piperidine-3,4,5-triol], the IC50 in assay [1] turned out to be 330 nM; in assay [2] it was 20 nM.

Regarding `Cc1cc(NCc2cccc(CN3C[C@H](O)[C@@H](O)[C@H](O)[C@H]3CO)n2)cc(N2CCOCC2)c1` [Compound 1336, (2R,3R,4R,5S)-2-(hydroxymethyl)-1-{[6-({[3-methyl-5-(morpholin-4-yl)phenyl]amino}methyl)pyridin-2-yl]methyl}piperidine-3,4,5-triol], the IC50 in assay [1] is 30300 nM; in assay [2] it was 9990 nM.

Regarding `N#Cc1cc(Br)cc(NCc2ccc(CN3C[C@H](O)[C@@H](O)[C@H](O)[C@H]3CO)cc2)c1` [Compound 1026, 3-bromo-5-{[(4-{[(2R,3R,4R,5S)-3,4,5-trihydroxy-2-(hydroxymethyl)piperidin-1-yl]methyl}phenyl)methyl]amino}benzonitrile], the IC50 was 7 nM in assay [1] and under 1 nM in assay [2].

With `COc1ccc(-c2ccc(CCCN3C[C@H](O)[C@@H](O)[C@H](O)[C@H]3CO)cc2)cc1` [Compound 1305, (2R,3R,4R,5S)-2-(hydroxymethyl)-1-(3-{4′-methoxy-[1,1′-biphenyl]-4-yl}propyl)piperidine-3,4,5-triol], the IC50 in assay [1] was 2830 nM; in assay [2], under 10 nM.

On to `OC[C@@H]1[C@@H](O)[C@H](O)[C@@H](O)CN1Cc1ccc(CNc2ccc(Br)cc2)cc1` [Compound 1028, (2R,3R,4R,5S)-1-[(4-{[(4-bromophenyl)amino]methyl}phenyl)methyl]-2-(hydroxymethyl)piperidine-3,4,5-triol], for which the IC50 in assay [1] was under 1 nM; in assay [2], 11 nM.

As to `[N-]=[N+]=Nc1ccc(NCCc2cccc(CCN3C[C@H](O)[C@@H](O)[C@H](O)[C@H]3CO)c2)c([N+](=O)[O-])c1` [Compound 1240, (2R,3R,4R,5S)-1-[2-(3-{2-[(4-azido-2-nitrophenyl)amino]ethyl}phenyl)ethyl]-2-(hydroxymethyl)piperidine-3,4,5-triol], the IC50 came to 283 nM in assay [1] and 701 nM in assay [2].

On to `OC[C@@H]1[C@@H](O)[C@H](O)[C@@H](O)CN1CCCCCCNc1cc(Cl)cc(-c2ncco2)c1` [Compound 1211, (2R,3R,4R,5S)-1-(6-{[3-chloro-5-(1,3-oxazol-2-yl)phenyl]amino}hexyl)-2-(hydroxymethyl)piperidine-3,4,5-triol], for which the results for the IC50 in assay [1] and in assay [2] were 112 nM and 1 nM, respectively.

`[N-]=[N+]=Nc1ccc(N2CC(OCCN3C[C@H](O)[C@@H](O)[C@H](O)[C@H]3CO)C2)c([N+](=O)[O-])c1` [Compound 1252, (2R,3R,4R,5S)-1-(2-{[1-(4-azido-2-nitrophenyl)azetidin-3-yl]oxy}ethyl)-2-(hydroxymethyl)piperidine-3,4,5-triol]: the values for the IC50 in assay [1] and in assay [2] were 1350 nM and 37 nM, respectively.

`COc1ccc(CCCCCCCN2C[C@H](O)[C@@H](O)[C@H](O)[C@H]2CO)cc1` [Compound 1309, (2R,3R,4R,5S)-2-(hydroxymethyl)-1-[7-(4-methoxyphenyl)heptyl]piperidine-3,4,5-triol]: the figures for the IC50 in assay [1] and in assay [2] were 700 nM and 22 nM, respectively.

For the molecule `Cc1cc(NCc2ccc(CN3C[C@H](O)[C@@H](O)[C@H](O)[C@H]3CO)cc2)cc(-n2ccnn2)c1` [Compound 1323, (2R,3R,4R,5S)-2-(hydroxymethyl)-1-{[4-({[3-methyl-5-(1H-1,2,3-triazol-1-yl)phenyl]amino}methyl)phenyl]methyl}piperidine-3,4,5-triol], the IC50 in assay [1] and in assay [2] was 11 nM in each case.

Take `O=[N+]([O-])c1cc(Br)ccc1NCc1cccc(CN2C[C@H](O)[C@@H](O)[C@H](O)[C@H]2CO)c1` [Compound 1029, (2R,3R,4R,5S)-1-[(3-{[(4-bromo-2-nitrophenyl)-amino]methyl}phenyl)methyl]-2-(hydroxymethyl)piperidine-3,4,5-triol]: the IC50 in assay [1] is 8 nM; in assay [2], 10 nM.

Consider `OC[C@@H]1[C@@H](O)[C@H](O)[C@@H](O)CN1CCCCCCNc1ccc(-c2ncccn2)cc1Cl` [Compound 1228, (2R,3R,4R,5S)-1-(6-{[2-chloro-4-(pyrimidin-2-yl)phenyl]amino}hexyl)-2-(hydroxymethyl)piperidine-3,4,5-triol], for which the IC50 in assay [1] came out at 19 nM; in assay [2] it was 1 nM.

Take `Nc1ccc(NCCc2ccccc2CCN2C[C@H](O)[C@@H](O)[C@H](O)[C@H]2CO)c([N+](=O)[O-])c1Cl` [Compound 1239, (2R,3R,4R,5S)-1-[2-(2-{2-[(4-amino-3-chloro-2-nitrophenyl)amino]ethyl}phenyl)ethyl]-2-(hydroxymethyl)piperidine-3,4,5-triol]: the values for the IC50 in assay [1] and in assay [2] were 1440 nM and under 1 nM, respectively.

Take `Cc1cc(Br)cc(NCc2cccc(CN3C[C@H](O)[C@@H](O)[C@H](O)[C@H]3CO)c2)c1` [Compound 1021, (2R,3R,4R,5S)-1-[(3-{[(3-bromo-5-methylphenyl)amino]methyl}phenyl)methyl]-2-(hydroxymethyl)piperidine-3,4,5-triol]: the figures for the IC50 in assay [1] and in assay [2] were 6 nM and 8 nM, respectively.

As to `[N-]=[N+]=Nc1ccc(NCCS(=O)(=O)CCCN2C[C@H](O)[C@@H](O)[C@H](O)[C@H]2CO)c([N+](=O)[O-])c1` [Compound 1274, (2R,3R,4R,5S)-1-(3-{2-[(4-azido-2-nitrophenyl)amino]ethane-sulfonyl}propyl)-2-(hydroxymethyl)piperidine-3,4,5-triol], the IC50 is 1550 nM in assay [1] and 151 nM in assay [2].

For the molecule `CN(C)Cc1ccc(NCCCCCCN2C[C@H](O)[C@@H](O)[C@H](O)[C@H]2CO)c(C(=O)O)c1` [Compound 1245, 5-[(dimethylamino)methyl]-2-({6-[(2R,3R,4R,5S)-3,4,5-trihydroxy-2-(hydroxymethyl)piperidin-1-yl]hexyl}amino)benzoic acid], the IC50 in assay [1] was 292 nM; in assay [2], 32 nM.

In the case of `[N-]=[N+]=Nc1ccc(NCCNC(=O)NCCN2C[C@H](O)[C@@H](O)[C@H](O)[C@H]2CO)c([N+](=O)[O-])c1` [Compound 1276, 1-{2-[(4-azido-2-nitrophenyl)amino]ethyl}-3-{2-[(2R,3R,4R,5S)-3,4,5-trihydroxy-2-(hydroxymethyl)piperidin-1-yl]ethyl}urea], the IC50 in assay [1] is 2440 nM; in assay [2], 49 nM.

On to `COc1ccc(-c2ccc(CN3C[C@H](O)[C@@H](O)[C@H](O)[C@H]3CO)cc2)cc1` [Compound 1306, (2R,3R,4R,5S)-2-(hydroxymethyl)-1-({4′-methoxy-[1,1′-biphenyl]-4-yl}methyl)piperidine-3,4,5-triol], for which the IC50 in assay [1] is 745 nM; in assay [2], under 10 nM.

`OC[C@@H]1[C@@H](O)[C@H](O)[C@@H](O)CN1Cc1cccc(CNc2cc(-c3ncccn3)cc(C3CC3)c2)n1` [Compound 1333, (2R,3R,4R,5S)-1-{[6-({[3-cyclopropyl-5-(pyrimidin-2-yl)phenyl]amino}methyl)pyridin-2-yl]methyl}-2-(hydroxymethyl)piperidine-3,4,5-triol]: the figures for the IC50 in assay [1] and in assay [2] were 4530 nM and 846 nM, respectively.
